US8008292B2, “Condensed benzamide compounds and inhibitors of vanilloid receptor subtype 1 (VR1) activity” (Japan Tobacco Inc., priority 2004, dated 2011)
Structures can show the parent of a compound that is named as a salt.

Biological target: T1, human VR1 (Homo sapiens, UniProt Q8NER1)
T1 construct: expressed in transfected cells
Assay: Inhibition of Ca2+ entry in cells caused by proton, in rat glioma (C6BU1) cells stably expressing human VR1 (Fura 2 fluorescence)
Type: cell-based
Settings: inhibition of proton-induced Ca2+ entry
In short: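 Fura 2-loaded C6BU1 cells in 20 mM MES buffer pH 6.8 with added Ca2+ were preincubated 10 min with compound (final 1 μM to 0.1 nM, 1% DMSO). Proton stimulation brought pH to 5.5. Fluorescence rise was measured, and IC50 was derived from % inhibition versus DMSO control.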

T1 sequence (Q8NER1 whole entry): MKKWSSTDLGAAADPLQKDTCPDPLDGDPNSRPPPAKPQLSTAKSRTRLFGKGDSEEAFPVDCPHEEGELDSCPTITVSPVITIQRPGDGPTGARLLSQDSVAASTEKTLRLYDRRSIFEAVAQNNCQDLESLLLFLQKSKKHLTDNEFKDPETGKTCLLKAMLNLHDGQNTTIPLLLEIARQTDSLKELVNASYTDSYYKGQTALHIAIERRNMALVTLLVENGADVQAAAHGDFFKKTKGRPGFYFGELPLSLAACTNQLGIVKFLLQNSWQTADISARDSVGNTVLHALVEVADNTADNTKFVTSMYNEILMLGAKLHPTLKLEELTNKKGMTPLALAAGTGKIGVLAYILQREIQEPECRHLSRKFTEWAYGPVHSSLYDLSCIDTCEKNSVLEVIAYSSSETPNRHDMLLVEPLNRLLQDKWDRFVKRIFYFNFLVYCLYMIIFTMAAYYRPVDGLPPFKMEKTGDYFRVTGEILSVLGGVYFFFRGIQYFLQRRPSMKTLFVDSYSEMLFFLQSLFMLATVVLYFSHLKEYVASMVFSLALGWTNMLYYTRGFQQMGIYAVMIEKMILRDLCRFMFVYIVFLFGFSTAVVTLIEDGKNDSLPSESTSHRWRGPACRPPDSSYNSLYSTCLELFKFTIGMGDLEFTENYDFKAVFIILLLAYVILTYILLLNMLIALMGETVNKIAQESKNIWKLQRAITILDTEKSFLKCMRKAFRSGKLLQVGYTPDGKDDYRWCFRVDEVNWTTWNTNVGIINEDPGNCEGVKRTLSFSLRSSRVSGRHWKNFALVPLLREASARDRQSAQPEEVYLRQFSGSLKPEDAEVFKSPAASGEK

Row | SMILES | IC50 [nM]
1 | O=C(Nc1ccc(C(F)(F)F)cc1)c1cccc2c1OCCN2c1ccc(CO)cn1 [Example 2-07, N-(4-trifluoromethylphenyl)-4-(5-hydroxymethylpyridin-2-yl)-3,4-dihydro-2H-benzo[1,4]oxazine-8-carboxamide hydrochloride] | < 100
2 | CC(C)COc1ccc(NC(=O)c2cccc3c2OCCN3c2ccc(CO)cn2)cc1 [Example 2-08, 4-(5-hydroxymethylpyridin-2-yl)-N-(4-isobutyloxyphenyl)-3,4-dihydro-2H-benzo[1,4]oxazine-8-carboxamide] | < 100
3 | COCc1cnc(N2CCOc3c(C(=O)Nc4ccc(C(F)(F)F)cc4)cccc32)c(Cl)c1 [Example 2-09, 4-(3-chloro-5-methoxymethylpyridin-2-yl)-N-(4-trifluoromethylpheny)-3,4-dihydro-2H-benzo[1,4]oxazine-8-carboxamide] | < 100
4 | O=C(Nc1ccc(OC(F)(F)F)cc1)c1cccc2c1OCCN2c1ncccc1CO [Example 2-11, N-(4-trifluoromethoxyphenyl)-4-(3-hydroxymethylpyridin-2-yl)-3,4-dihydro-2H-benzo[1,4]oxazine-8-carboxamide] | 100 to 1000
5 | O=C(Nc1ccc(C(F)(F)F)nc1)c1cccc2c1OCCN2c1ncc(CO)cc1Cl [Example 2-16] | < 100
6 | O=C(Nc1ccc(Br)c(Cl)c1)c1cccc2c1OCCN2c1ncc(CO)cc1Cl [Example 2-17] | < 100
7 | CC(C)Oc1ccc(NC(=O)c2cccc3c2OCCN3c2ncc(CO)cc2Cl)cc1C(F)(F)F [Example 2-19] | < 100
8 | O=C(Nc1cnc(Cl)c(Cl)c1)c1cccc2c1OCCN2c1ncc(CO)cc1Cl [Example 2-20] | < 100
9 | O=C(Nc1cc(Cl)c(Cl)c(Cl)c1)c1cccc2c1OCCN2c1ncc(CO)cc1Cl [Example 2-21] | < 100
10 | O=C(Nc1nc2ccc(F)cc2s1)c1cccc2c1OCCN2c1ncc(CO)cc1Cl [Example 2-22] | < 100
11 | O=C(Nc1ccc(Br)c(C(F)(F)F)c1)c1cccc2c1OCCN2c1ncc(CO)cc1Cl [Example 2-23] | < 100
12 | O=C(Nc1cc(F)c(F)c(F)c1)c1cccc2c1OCCN2c1ncc(CO)cc1Cl [Example 2-25] | < 100
13 | O=C(Nc1ccc(F)c([N+](=O)[O-])c1)c1cccc2c1OCCN2c1ncc(CO)cc1Cl [Example 2-26] | 100 to 1000
14 | CC(C)(C)c1ccc(NC(=O)c2cccc3c2OCCN3c2ccc(CO)cn2)cc1 [Example 2-28] | < 100
15 | O=C(Nc1cc(C(F)(F)F)cc(C(F)(F)F)c1)c1cccc2c1OCCN2c1ncc(CO)cc1Cl [Example 2-29] | < 100
16 | O=C(Nc1ccc(OCC(F)(F)F)cc1)c1cccc2c1OCCN2c1ncc(CO)cc1Cl [Example 2-30] | < 100
17 | O=C(Nc1ccc(OCC(F)(F)F)c(Cl)c1)c1cccc2c1OCCN2c1ncc(CO)cc1Cl [Example 2-31] | < 100
18 | O=C(Nc1ccc(SC(F)(F)F)cc1)c1cccc2c1OCCN2c1ncc(CO)cc1Cl [Example 2-32] | < 100
19 | CC(C)(C)C1CCC(NC(=O)c2cccc3c2OCCN3c2ncc(CO)cc2Cl)CC1 (stereo not drawn) [Example 2-33] | < 100
20 | CC(C)Oc1ccc(NC(=O)c2cccc3c2OCCN3c2ncc(CO)cc2Cl)cc1F [Example 2-34] | < 100
21 | O=C(Nc1ccc(N2CCCCC2)c(F)c1)c1cccc2c1OCCN2c1ncc(CO)cc1Cl [Example 2-35] | < 100

Row | SMILES | IC50 [nM]
22 | CC(C)(C)c1ccc(NC(=O)c2cccc3c2OCCN3c2ncc(CO)cc2Cl)cc1 [Example 2-36] | < 100
23 | O=C(Nc1ccc(C(O)(C(F)(F)F)C(F)(F)F)cc1)c1cccc2c1OCCN2c1ncc(CO)cc1Cl [Example 2-37] | < 100
24 | O=C(Nc1ccc2c(c1)OC(F)(F)C(F)(F)O2)c1cccc2c1OCCN2c1ncc(CO)cc1Cl [Example 2-38] | < 100
25 | CC(C)COc1ccc(NC(=O)c2cccc3c2OCCN3c2ncc(CO)cc2Cl)cc1 [Example 2-39] | < 100
26 | O=C(Nc1ccc(Cl)c(Cl)c1)c1cccc2c1OCCN2c1ncc(CO)cc1Cl [Example 2-40] | < 100
27 | O=C(Nc1ccc(Br)c(F)c1)c1cccc2c1OCCN2c1ncc(CO)cc1Cl [Example 2-41] | < 100
28 | O=C(Nc1ccc(Br)cc1)c1cccc2c1OCCN2c1ncc(CO)cc1Cl [Example 2-42] | < 100
29 | O=C(Nc1cc(Cl)cc(Cl)c1)c1cccc2c1OCCN2c1ncc(CO)cc1Cl [Example 2-43] | < 100
30 | O=C(Nc1ccc(OC(F)F)cc1)c1cccc2c1OCCN2c1ncc(CO)cc1Cl [Example 2-44] | < 100
31 | O=C(Nc1ccc(Cl)cc1)c1cccc2c1OCCN2c1ncc(CO)cc1Cl [Example 2-45] | < 100
32 | CC(C)c1ccc(NC(=O)c2cccc3c2OCCN3c2ncc(CO)cc2Cl)cc1 [Example 2-46] | < 100
33 | O=C(Nc1cccc(OC(F)(F)F)c1)c1cccc2c1OCCN2c1ncc(CO)cc1Cl [Example 2-47] | < 100
34 | CC(O)c1cnc(N2CCOc3c(C(=O)Nc4ccc(OC(F)(F)F)cc4)cccc32)c(Cl)c1 (stereo not drawn) [Example 2-48] | < 100
35 | O=C(Nc1ccc(OC(F)(F)F)cc1)c1cccc2c1OC[C@@H](CO)N2c1ncccc1Cl [Example 4-01, (R)-4-(3-chloropyridin-2-yl)-3-hydroxylmethyl-N-(4-trifluoromethoxyphenyl)-3,4-dihydro-2H-benzo[1,4]oxazine-8-carboxamide] | 100 to 1000
36 | O=C(Nc1ccc(OC(F)(F)F)cc1)c1cccc2c1OC[C@H](CO)N2c1ncccc1Cl [Example 4-03, (S)-4-(3-chloropyridin-2-yl)-3-hydroxylmethyl-N-(4-trifluoromethoxyphenyl)-3,4-dihydro-2H-benzo[1,4]oxazine-8-carboxamide] | < 100
37 | O=C(Nc1ccc(C(F)(F)F)cc1)c1cccc2c1OC[C@H](CO)N2c1ncccc1Cl [Example 4-04, (S)-4-(3-chloropyridin-2-yl)-3-hydroxylmethyl-N-(4-trifluoromethylphenyl)-3,4-dihydro-2H-benzo[1,4]oxazine-8-carboxamide] | < 100
38 | O=C(Nc1ccc(OC(F)(F)F)cc1)c1cccc2c1OC[C@H](CO)N2c1ccc(Cl)cn1 [Example 4-05, (S)-4-(5-chloropyridin-2-yl)-3-hydroxylmethyl-N-(4-trifluoromethoxyphenyl)-3,4-dihydro-2H-benzo[1,4]oxazine-8-carboxamide] | < 100
39 | O=C(Nc1ccc(C(F)(F)F)cc1)c1cccc2c1OC[C@H](CO)N2c1ccc(Cl)cn1 [Example 4-06, (S)-4-(5-chloropyridin-2-yl)-3-hydroxylmethyl-N-(4-trifluoromethylphenyl)-3,4-dihydro-2H-benzo[1,4]oxazine-8-carboxamide] | < 100
40 | Cc1ccc(N2c3cccc(C(=O)Nc4ccc(OC(F)(F)F)cc4)c3OC[C@@H]2CO)nc1 [Example 4-07, (S)-4-(5-picoline-2-yl)-3-hydroxylmethyl-N-(4-trifluoromethoxyphenyl)-3,4-dihydro-2H-benzo[1,4]oxazine-8-carboxamide] | < 100
41 | Cc1ccc(N2c3cccc(C(=O)Nc4ccc(C(F)(F)F)cc4)c3OC[C@@H]2CO)nc1 [Example 4-08, (S)-4-(5-picoline-2-yl)-3-hydroxylmethyl-N-(4-trifluoromethylphenyl)-3,4-dihydro-2H-benzo[1,4]oxazine-8-carboxamide] | < 100
42 | CC(C)Oc1ccc(NC(=O)c2cccc3c2OC[C@H](CO)N3c2ncccc2Cl)cc1F [Example 4-09] | < 100
